Measurements reported in patent US20260115139A1, “Amino Acid-Containing Ionizable Lipids for the Delivery of Therapeutic Agents” (NanoVation Therapeutics Inc., priority 2022, published 2026).

Tested on: not given
Assay: not given
Details: delivery of siRNA; background statement; cited from earlier work

| Compound | siRNA required compared with KC2 |
| --- | --- |
| CCCCC/C=C\C/C=C\CCCCCCCCC(CCCCCCCC/C=C\C/C=C\CCCCC)OC(=O)CCCN(C)C [lipid 1] | about 3 times less |

Tested on: liver
Assay: In vivo delivery of luciferase mRNA LNPs, luminescence in liver
Details: LNP 50/10/38.5/1.5 mol % ionizable lipid/DSPC/chol/PEG-DMG, N/P=6, luciferase mRNA 1 mg/kg intravenous, CD-1 mice, 4 hours post-injection
Procedure: The mRNA dose was 1 mg/kg.

| Compound | luminescence intensity per mg liver compared with the MC3 benchmark (lipid 1) |
| --- | --- |
| CCCCCCCCC(CCCCCC)C(=O)OCCCCCC(CCCCCOC(=O)CN(C)C(=O)C(CCCCCC)CCCCCCCC)OC(=O)CCCN(C)C (stereo not shown) [lipid 6, 6-((4-(Dimethylamino)butanoyl)oxy)-11-((N-(2-hexyldecanoyl)-N-methylglycyl)oxy)-undecyl 2-hexyldecanoate] | higher |
| CCCCCCCCC(CCCCCC)C(=O)N(C)CC(=O)OCCCCCC1(CCCCCOC(=O)CN(C)C(=O)C(CCCCCC)CCCCCCCC)OCC(CCOC(=O)CCCN(C)C)O1 (stereo not shown) [lipid 17, (4-(2-((4-(dimethylamino)butanoyl)oxy)ethyl)-1,3-dioxolane-2,2-diyl)bis(pentane-5,1-diyl) bis(2-(2-hexyl-N-methyldecanamido)acetate)] | higher |
| CCCCCCCCC(CCCCCC)C(=O)N(C)CC(=O)OCCCCCC(CCCCCOC(=O)CN(C)C(=O)C(CCCCCC)CCCCCCCC)OC(=O)CCCC(=O)OCCCN(C)C (stereo not shown) [lipid 19, 9,31-dihexyl-11,29-dimethyl-10,13,27,30-tetraoxo-14,26-dioxa-11,29-diazanonatriacon-tan-20-yl (3-(dimethylamino)propyl) glutarate] | higher |
| CCCCCCCCC(CCCCCC)C(=O)OCCCCCC(CCCCCOC(=O)CN(C)C(=O)C(CCCCCC)CCCCCCCC)N(C)CCCO (stereo not shown) [lipid 23, 11-((N-(2-Hexyldecanoyl)-N-methylglycyl)oxy)-6-((3-hydroxypropyl)(methyl)amino)-undecyl 2-hexyldecanoate] | higher |
| CCCCCCCCC(CCCCCC)C(=O)OCCCCCC(CCCCCOC(=O)CN(C)C(=O)C(CCCCCC)CCCCCCCC)N(C)CCO (stereo not shown) [lipid 24, 11-((N-(2-Hexyldecanoyl)-N-methylglycyl)oxy)-6-((2-hydroxyethyl)(methyl)amino)-undecyl 2-hexyldecanoate] | higher |
| CCCCCCCCC(CCCCCC)C(=O)OCCCCCC(CCCCCOC(=O)CN(C)C(=O)CC(CCCCCCC)CCCCCCC)N(C)CCCCO (stereo not shown) [lipid 25, 11-((N-(3-Heptyldecanoyl)-N-methylglycyl)oxy)-6-((4-hydroxybutyl)(methyl)amino)-undecyl 2-hexyldecanoate] | higher |
| CCCCCCCCC(CCCCCC)CC(=O)N(C)CC(=O)OCCCCCC(CCCCCOC(=O)C(CCCCCC)CCCCCCCC)N(C)CCCCO (stereo not shown) [lipid 27, 11-((N-(3-Hexylundecanoyl)-N-methylglycyl)oxy)-6-((4-hydroxybutyl)(methyl)-amino)-undecyl 2-hexyldecanoate] | higher |
| CCCCCCCCCC(=O)OCCCCCC(CCCCCOC(=O)CN(C)C(=O)CC(CCCCCC)CCCCCCCC)N(C)CCCCO (stereo not shown) [lipid 33, 11-((N-(3-Hexylundecanoyl)-N-methylglycyl)oxy)-6-((4-hydroxybutyl)(methyl)-amino)-undecyl decanoate] | higher |
| CCCCCCCCC(CCCCCC)C(=O)OCCCCCC(CCCCCO)N(C)CCCCOC(=O)CN(C)C(=O)C(CCCCCC)CCCCCCCC (stereo not shown) [lipid 36, 6-((4-((N-(2-Hexyldecanoyl)-N-methylglycyl)oxy)butyl)(methyl)amino)-11-hydroxy-undecyl 2-hexyldecanoate] | higher |
